Legend:
Format in all cases: biochemical
PLK1 = PLK1 (Homo sapiens, UniProt P53350); test: PLK TR-FRET peptide assay, PLK1; settings: GST-PLK1, 60 min reaction
PLK3 = PLK3 (Homo sapiens, UniProt Q9H4B4); test: PLK TR-FRET peptide assay, PLK3; settings: GST-PLK3, 15 min reaction, read-out: Plk3 IC50
PLK2 = PLK2 (Homo sapiens, UniProt Q9NYY3); test: PLK TR-FRET peptide assay, PLK2; settings: for IC50: PLK TR-FRET peptide assay, GST-PLK2, 60 min reaction, read-out: Plk2 IC50
Chain of PLK2 (Q9NYY3 whole entry): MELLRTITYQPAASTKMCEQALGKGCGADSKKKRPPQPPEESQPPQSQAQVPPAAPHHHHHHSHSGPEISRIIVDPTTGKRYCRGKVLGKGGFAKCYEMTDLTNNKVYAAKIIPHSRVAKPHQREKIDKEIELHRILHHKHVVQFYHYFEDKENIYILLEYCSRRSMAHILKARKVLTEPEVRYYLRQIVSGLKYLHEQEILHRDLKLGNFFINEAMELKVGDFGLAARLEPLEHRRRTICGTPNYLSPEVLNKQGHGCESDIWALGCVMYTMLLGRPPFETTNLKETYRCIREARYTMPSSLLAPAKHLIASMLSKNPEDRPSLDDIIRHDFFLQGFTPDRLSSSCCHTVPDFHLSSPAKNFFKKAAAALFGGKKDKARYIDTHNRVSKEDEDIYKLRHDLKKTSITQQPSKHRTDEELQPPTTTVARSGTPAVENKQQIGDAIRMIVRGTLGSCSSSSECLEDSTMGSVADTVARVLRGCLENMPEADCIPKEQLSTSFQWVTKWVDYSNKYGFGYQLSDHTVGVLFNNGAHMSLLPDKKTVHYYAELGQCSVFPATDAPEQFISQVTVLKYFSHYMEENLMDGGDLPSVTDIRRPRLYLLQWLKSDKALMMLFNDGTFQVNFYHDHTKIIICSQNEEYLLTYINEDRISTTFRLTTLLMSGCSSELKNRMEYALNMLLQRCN

Chain of PLK1 (P53350 whole entry): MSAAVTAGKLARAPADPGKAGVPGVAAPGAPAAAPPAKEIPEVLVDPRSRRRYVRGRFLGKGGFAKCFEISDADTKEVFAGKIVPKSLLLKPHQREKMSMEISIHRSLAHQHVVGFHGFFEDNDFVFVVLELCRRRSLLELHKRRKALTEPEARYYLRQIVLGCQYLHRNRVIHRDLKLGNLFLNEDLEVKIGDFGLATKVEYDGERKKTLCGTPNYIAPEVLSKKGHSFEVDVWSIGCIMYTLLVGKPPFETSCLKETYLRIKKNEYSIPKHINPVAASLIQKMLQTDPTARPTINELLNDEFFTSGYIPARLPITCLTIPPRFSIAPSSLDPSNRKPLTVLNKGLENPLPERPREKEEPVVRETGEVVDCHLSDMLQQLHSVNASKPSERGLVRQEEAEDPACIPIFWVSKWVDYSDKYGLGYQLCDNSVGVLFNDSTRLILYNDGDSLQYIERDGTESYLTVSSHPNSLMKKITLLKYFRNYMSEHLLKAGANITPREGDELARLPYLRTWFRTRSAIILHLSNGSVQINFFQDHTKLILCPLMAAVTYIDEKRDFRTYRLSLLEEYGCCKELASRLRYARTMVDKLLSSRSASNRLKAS
Chain of PLK3 (Q9H4B4 whole entry): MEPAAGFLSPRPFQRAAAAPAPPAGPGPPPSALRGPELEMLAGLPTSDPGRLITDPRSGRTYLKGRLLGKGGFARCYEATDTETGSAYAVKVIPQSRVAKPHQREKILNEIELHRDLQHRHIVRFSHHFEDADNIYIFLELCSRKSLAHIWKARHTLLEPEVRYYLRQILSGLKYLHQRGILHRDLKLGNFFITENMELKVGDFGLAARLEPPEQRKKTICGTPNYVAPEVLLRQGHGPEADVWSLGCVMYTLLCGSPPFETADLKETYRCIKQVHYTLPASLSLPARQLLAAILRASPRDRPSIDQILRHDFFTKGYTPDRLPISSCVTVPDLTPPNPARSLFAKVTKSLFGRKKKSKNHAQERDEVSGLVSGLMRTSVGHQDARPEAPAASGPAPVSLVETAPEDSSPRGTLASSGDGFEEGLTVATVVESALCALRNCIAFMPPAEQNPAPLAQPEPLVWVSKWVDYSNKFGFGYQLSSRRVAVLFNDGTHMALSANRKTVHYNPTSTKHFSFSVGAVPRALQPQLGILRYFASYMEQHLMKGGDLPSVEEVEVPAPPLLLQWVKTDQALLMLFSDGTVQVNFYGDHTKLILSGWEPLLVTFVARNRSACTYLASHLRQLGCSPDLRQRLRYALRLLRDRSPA

| Structure (SMILES) | IC50 (PLK1) | IC50 (PLK3) | IC50 (PLK2) | relative PLK2 activity of the enantiomers (PLK2; compared with the opposite enantiomer) |
| --- | --- | --- | --- | --- |
| CC[C@@]12CCCN1c1nc(-n3ccnc3-c3nccc4ccccc34)ncc1N(C)C2=O [Example 206, (S)-6a-ethyl-2-(2-(isoquinolin-1-yl)-1H-imidazol-1-yl)-5-methyl-6a,7,8,9-tetrahydropyrrolo[2,1-h]pteridin-6(5H)-one] | > 50 µM | 10 to 50 µM | 1 to 10 µM | – |
| CC[C@@H]1C(=O)N(C)c2cnc(-n3nccc3-c3ccccc3)nc2N1C1CCC1 [Example 207, (R)-8-cyclobutyl-7-ethyl-5-methyl-2-(5-phenyl-1H-pyrazol-1-yl)-7,8-dihydropteridin-6(5H)-one] | < 1 µM | 1 to 10 µM | < 1 µM | – |
| CC[C@@H]1C(=O)N(C)c2cnc(N3CCN(C)CC3)nc2N1C1CCCC1 [Example 210, (R)-8-cyclopentyl-7-ethyl-5-methyl-2-(4-methylpiperazin-1-yl)-7,8-dihydropteridin-6(5H)-one] | > 50 µM | > 50 µM | > 50 µM | – |
| CC[C@@H]1C(=O)N(C)c2cnc(-n3ccnc3-c3ccc(F)cc3)nc2N1C(C)C [Example 212, (R)-7-ethyl-2-(2-(4-fluorophenyl)-1H-imidazol-1-yl)-8-isopropyl-5-methyl-7,8-dihydropteridin-6(5H)-one] | 1 to 10 µM | 1 to 10 µM | < 1 µM | – |
| CC[C@@H]1C(=O)N(C)c2cnc(N3CCNC(=O)C3)nc2N1C1CCCC1 [Example 214, (R)-8-cyclopentyl-7-ethyl-5-methyl-2-(3-oxopiperazin-1-yl)-7,8-dihydropteridin-6(5H)-one] | 1 to 10 µM | > 50 µM | 10 to 50 µM | – |

Continued, values first:

| IC50 (PLK1) | IC50 (PLK3) | IC50 (PLK2) | relative PLK2 activity of the enantiomers (PLK2; compared with the opposite enantiomer) | Structure (SMILES) |
| --- | --- | --- | --- | --- |
| < 1 µM | 1 to 10 µM | < 1 µM | more active compound | [2H]C([2H])([2H])N1C(=O)[C@@H](C([2H])([2H])C([2H])([2H])[2H])N(C([2H])(C([2H])([2H])[2H])C([2H])([2H])[2H])c2nc(-n3ccnc3-c3cccc(F)c3)ncc21 [Example 202, (R)-7-perdeuteroethyl-2-(2-(3-fluorophenyl)-1H-imidazol-1-yl)-8-perdeuteroisopropyl-5-trideuteromethyl-7,8-dihydropteridin-6(5H)-one] |
| < 1 µM | 1 to 10 µM | < 1 µM | – | CC[C@@H]1C(=O)N(C)c2cnc(-n3ccnc3-c3cccc(Cl)c3)nc2N1C(C)C [Example 204, (R)-2-(2-(3-chlorophenyl)-1H-imidazol-1-yl)-7-ethyl-8-isopropyl-5-methyl-7,8-dihydropteridin-6(5H)-one] |
| < 1 µM | < 1 µM | < 1 µM | – | CC[C@@H]1C(=O)N(C)c2cnc(-n3ncnc3-c3ccccc3)nc2N1C1CCC1 [Example 208, (R)-8-cyclobutyl-7-ethyl-5-methyl-2-(5-phenyl-1H-1,2,4-triazol-1-yl)-7,8-dihydropteridin-6(5H)-one] |
| 10 to 50 µM | 10 to 50 µM | 1 to 10 µM | – | CCC12CCCCCN1c1nc(-n3nccc3-c3ccccc3)ncc1N(C)C2=O (stereo not shown) [Example 209, 6a-ethyl-5-methyl-2-(5-phenyl-1H-pyrazol-1-yl)-6a,7,8,9,10,11-hexahydroazepino[2,1-h]pteridin-6(5H)-one] |
| < 1 µM | 1 to 10 µM | < 1 µM | – | CC[C@@H]1C(=O)N(C)c2cnc(-n3ccnc3-c3cccc(Cl)c3)nc2N1C1CCOC1 (stereo partly drawn) [Example 211, (7R)-2-(2-(3-chlorophenyl)-1H-imidazol-1-yl)-7-ethyl-5-methyl-8-(tetrahydrofuran-3-yl)-7,8-dihydropteridin-6(5H)-one] |
| 10 to 50 µM | 10 to 50 µM | < 1 µM | – | CC[C@@]12CCCN1c1nc(-n3ccnc3-c3ccc(F)c(Cl)c3)ncc1N(C)C2=O [Example 213, (S)-2-(2-(3-chloro-4-fluorophenyl)-1H-imidazol-1-yl)-6a-ethyl-5-methyl-6a,7,8,9-tetrahydropyrrolo[2,1-h]pteridin-6(5H)-one] |

From patent US8541418B2, “Inhibitors of polo-like kinase” (Elan Pharmaceutical, Inc., priority 2009, dated 2013)
